Results as given in the NIST ThermoML archive (doi:10.1021/je0601457).

Assay: xn = mol fraction of the nth substance listed

Cc1nccnc1C [2,3-dimethylpyrazine] + O=C=O
Fluid (supercritical or subcritical phases), Linear displacement technique
Settings	mass density [kg/m3]
294.15 K, 7140 kPa, x1 = 0.027	905
294.15 K, 9590 kPa, x1 = 0.027	934
294.15 K, 14100 kPa, x1 = 0.027	983
294.55 K, 7140 kPa, x1 = 0.049	1099
294.55 K, 7140 kPa, x1 = 0.184	947
294.55 K, 8520 kPa, x1 = 0.184	949
294.55 K, 10590 kPa, x1 = 0.049	1123
294.55 K, 12450 kPa, x1 = 0.184	951
294.55 K, 13830 kPa, x1 = 0.049	1142
294.75 K, 2240 kPa, x1 = 0.736	861
294.75 K, 3830 kPa, x1 = 0.736	864
294.75 K, 5690 kPa, x1 = 0.736	864
294.75 K, 6720 kPa, x1 = 0.033	836
294.75 K, 8450 kPa, x1 = 0.033	858
294.75 K, 13830 kPa, x1 = 0.033	911
294.85 K, 6660 kPa, x1 = 0.108	899
294.85 K, 7070 kPa, x1 = 0.565	958
294.85 K, 10070 kPa, x1 = 0.108	901
294.85 K, 10620 kPa, x1 = 0.565	961
294.85 K, 13620 kPa, x1 = 0.108	904
294.85 K, 15240 kPa, x1 = 0.565	964
294.85 K, 18660 kPa, x1 = 0.108	908
295.05 K, 7070 kPa, x1 = 0.157	995
295.05 K, 10310 kPa, x1 = 0.157	1004
295.05 K, 13480 kPa, x1 = 0.157	1014
295.25 K, 6140 kPa, x1 = 0.086	767
295.25 K, 6380 kPa, x1 = 0.057	871
295.25 K, 7410 kPa, x1 = 0.057	885
295.25 K, 7690 kPa, x1 = 0.01	785
295.25 K, 8380 kPa, x1 = 0.086	778
295.25 K, 10170 kPa, x1 = 0.057	911
295.25 K, 11100 kPa, x1 = 0.01	833
295.25 K, 12100 kPa, x1 = 0.086	799
295.25 K, 15790 kPa, x1 = 0.01	873
295.25 K, 16070 kPa, x1 = 0.086	817
296.25 K, 4410 kPa, x1 = 0.433	989
296.25 K, 7660 kPa, x1 = 0.433	997
296.25 K, 10720 kPa, x1 = 0.433	1002
301.75 K, 6620 kPa, x1 = 0.565	938
301.75 K, 9830 kPa, x1 = 0.565	941
301.75 K, 15790 kPa, x1 = 0.565	946
302.65 K, 7520 kPa, x1 = 0.049	902
302.65 K, 10030 kPa, x1 = 0.049	934
302.65 K, 13030 kPa, x1 = 0.049	962
302.65 K, 16660 kPa, x1 = 0.049	1000
303.25 K, 7410 kPa, x1 = 0.291	859
303.25 K, 9860 kPa, x1 = 0.291	860
303.25 K, 15450 kPa, x1 = 0.291	860
306.25 K, 7410 kPa, x1 = 0.027	750
306.25 K, 9900 kPa, x1 = 0.027	812
306.25 K, 13380 kPa, x1 = 0.027	864
308.95 K, 7070 kPa, x1 = 0.157	952
308.95 K, 9450 kPa, x1 = 0.157	964
308.95 K, 13480 kPa, x1 = 0.157	981
308.95 K, 17690 kPa, x1 = 0.157	996
310.85 K, 6970 kPa, x1 = 0.433	967
310.85 K, 12480 kPa, x1 = 0.433	975
310.85 K, 21340 kPa, x1 = 0.433	994
311.45 K, 7380 kPa, x1 = 0.184	912

Liquid, linear displacement
Settings	mass density [kg/m3]
294.15 K, x1 = 0.027	868
294.55 K, x1 = 0.049	1077
294.55 K, x1 = 0.184	945
294.75 K, x1 = 0.033	802
294.75 K, x1 = 0.736	861
294.85 K, x1 = 0.108	896
294.85 K, x1 = 0.565	947
295.05 K, x1 = 0.157	982
295.25 K, x1 = 0.01	735
295.25 K, x1 = 0.057	832
295.25 K, x1 = 0.086	730
296.25 K, x1 = 0.433	985
301.75 K, x1 = 0.565	920
302.65 K, x1 = 0.049	876
303.25 K, x1 = 0.291	858
306.25 K, x1 = 0.027	738
308.95 K, x1 = 0.157	948
310.85 K, x1 = 0.433	962
